Source: ChEMBL document CHEMBL3832761, “MMV Pathogen Box Bioactivity Data” (2017)
Each block holds one molecule with its values, some of them ahead of it. Active and inactive are the calls of the source. The rule behind the calls is not given here.

Tests used:
Trypanosoma brucei [1] = assay: AntiTrypanosoma brucei activity T. b. rhodesiense IC50 (uM); type: functional, organism-based
HepG2 = assay: Cytotoxicity data HepG2 CC20 (uM); type: functional
Leishmania major = assay: AntiLeishmania activity L. major IC50 (uM); type: functional, organism-based
Leishmania infantum = assay: AntiLeishmania activity L. infantum (macrophages) IC50 (uM); type: functional, organism-based
Trypanosoma brucei [2] = assay: AntiTrypanosoma brucei activity T. b. brucei IC50 (uM); type: functional, organism-based
[3] = PMM CC50 (uM) Cytotoxicity; type: functional; details: Macrophage
Trypanosoma cruzi = assay: AntiTrypanosoma cruzi activity IC50 (uM); type: functional, organism-based
MRC5 = assay: MRC5 CC50 (uM) Cytotoxicity; type: functional; details: Homo sapiens
Cryptosporidium parvum [4] = assay: AntiCryptosporidium parvum activity Compounds added 3h after t0, IC 50 (uM); type: functional, organism-based
[5] = HL60 CC50 (uM) Cytotoxicity; type: functional; details: HL-60
Cryptosporidium parvum [6] = assay: AntiCryptosporidium parvum activity Compounds added at t0, IC 50 (uM); type: functional, organism-based
Toxoplasma gondii [7] = assay: AntiToxoplasma gondii activity data 2-day killing assay: inhibition at 10 uM (%) Experiment C; type: functional; details: 48 h
Toxoplasma gondii [8] = assay: AntiToxoplasma gondii activity data Inhibition of plaque forming efficiency (%) Experiment A; type: functional; parameters: concentration or dose not given beside the values
Toxoplasma gondii [9] = assay: AntiToxoplasma gondii activity data 2-day killing assay: IC50 (uM), Experiment F; type: functional, organism-based
Toxoplasma gondii [10] = assay: AntiToxoplasma gondii activity data 2-day killing assay: IC50 (uM), Experiment G; type: functional, organism-based
Toxoplasma gondii [11] = assay: AntiToxoplasma gondii activity data 2-day killing assay: inhibition at 10 uM (%) Experiment D; type: functional
Toxoplasma gondii [12] = assay: AntiToxoplasma gondii activity data 2-day killing assay: inhibition at 10 uM (%) Experiment E; type: functional
Toxoplasma gondii [13] = assay: AntiToxoplasma gondii activity data Inhibition of plaque forming efficiency (%) Experiment B; type: functional; parameters: concentration or dose not given beside the values
Brugia pahangi = assay: AntiBrugia pahangi activity Average inhibition motility at 10 uM (%); type: functional
Onchocerca ochengi [14] = assay: AntiOnchocerca activity O. ochengi adult females: final mean inhibition motility at 10 uM on Day 7 (%); type: functional
Onchocerca gutturosa [15] = assay: AntiOnchocerca activity O. gutturosa adult males: MTT reduction at 12.5 uM (%); type: functional; parameters: scale not given: the % may be the effect or the level left
Onchocerca gutturosa [16] = assay: AntiOnchocerca activity O. gutturosa adult males: Motility reduction at 12.5 uM (%); type: functional; parameters: scale not given: the % may be the effect or the level left
Onchocerca lienalis = assay: AntiOnchocerca activity O. lienalis microfilariae Motility reduction (%); type: functional; parameters: concentration or dose not given beside the values
Onchocerca volvulus = assay: AntiOnchocerca activity O. volvulus L3 Molting assay: inhibition at 10 uM (%); type: functional
Onchocerca ochengi [17] = assay: AntiOnchocerca activity O. ochengi adult males: final mean inhibition motility at 10 uM on Day 5 (%); type: functional
Leishmania donovani [18] = assay: AntiLeishmania activity L. donovani (macrophages) IC50 (uM); type: functional, organism-based
L6 = assay: L6 CC50 (uM) Cytotoxicity; type: functional; details: Rattus norvegicus
Leishmania donovani [19] = assay: AntiLeishmania activity L. donovani (axenic) IC50 (uM); type: functional, organism-based
Leishmania = assay: AntiLeishmania activity Toxicity on infected PMM (uM); type: functional
Schistosoma mansoni [20] = assay: AntiSchistosoma mansoni activity Newly Transformed Schistosomula: inhibition at 10 uM at 72h (%); type: functional
Schistosoma mansoni [21] = assay: AntiSchistosoma mansoni activity Juveniles IC50 (uM); type: functional, organism-based
Schistosoma mansoni [22] = assay: AntiSchistosoma mansoni activity Adults IC50 (uM); type: functional, organism-based
Schistosoma mansoni [23] = assay: AntiSchistosoma mansoni activity Larva IC50 (uM); type: functional, organism-based
Schistosoma mansoni [24] = assay: AntiSchistosoma mansoni activity Newly Transformed Schistosomula: IC50 at 72h (uM); type: functional, organism-based
Schistosoma mansoni [25] = assay: AntiSchistosoma mansoni activity Adults: Effect at 10 uM after 48h; type: functional, organism-based

Compound: CC(C)C(Oc1cccc2ccccc12)C(=O)O (stereo not given)
CC20 (HepG2): >80 µM | IC50 (Cryptosporidium parvum [4]): > 10 µM | CC50 [5]: > 50 µM | IC50 (Cryptosporidium parvum [6]): > 10 µM

Compound: CC(=O)N1CCN(c2ccc(Oc3ccc(Cl)cc3O)cc2)CC1
inhibition at 10 µM (Toxoplasma gondii [7]): 71% | Inhibition (Toxoplasma gondii [8]): ~90% | IC50 (Toxoplasma gondii [9]): no inhibition | IC50 (Toxoplasma gondii [10]): no inhibition | Inhibition (Toxoplasma gondii [11]): 22.4% | CC50 [5]: > 50 µM | Inhibition (Toxoplasma gondii [12]): 64.6% | Inhibition (Toxoplasma gondii [13]): ~90%

Compound: CC(C)(C)OC(=O)N1CCC(Cn2nc(-c3cnc4ccccc4c3)c3c(N)ncnc32)CC1
inhibition at 10 µM (Toxoplasma gondii [7]): 1.88% | Inhibition (Toxoplasma gondii [8]): 100% | Inhibition (Toxoplasma gondii [11]): 36.1% | CC50 [5]: > 50 µM | Inhibition (Toxoplasma gondii [12]): 0% | Inhibition (Toxoplasma gondii [13]): ~75%

Compound: O=C(c1ccc(F)cc1)N(CCNc1ccccc1)c1ccccc1
Inhibition (Brugia pahangi): 17% | Inhibition (Onchocerca ochengi [14]): 0% | CC20 (HepG2): 18.5 µM | Activity (Onchocerca gutturosa [15]): 0% | Activity (Onchocerca gutturosa [16]): 28.6% | Activity (Onchocerca lienalis): 13.3% | CC50 [5]: > 50 µM | Inhibition (Onchocerca volvulus): 89% | Inhibition (Onchocerca ochengi [17]): 0%

Compound: Cc1cc2nc(NC(=O)C(C)(C)C)nc(Cl)c2n1Cc1ccc(Cl)cc1
inhibition at 10 µM (Toxoplasma gondii [7]): 0% | Inhibition (Toxoplasma gondii [8]): ~85% | IC50 (Toxoplasma gondii [9]): no inhibition | IC50 (Toxoplasma gondii [10]): no inhibition | Inhibition (Toxoplasma gondii [11]): 63.9% | CC50 [5]: > 25 µM | Inhibition (Toxoplasma gondii [12]): 0% | Inhibition (Toxoplasma gondii [13]): ~50%

Compound: CS(=O)(=O)c1ccc(C(=O)N(CC2CCCO2)c2nc3ccccc3s2)cc1[N+](=O)[O-] (stereo not given)
Inhibition (Schistosoma mansoni [20]): 100% | IC50 (Schistosoma mansoni [21]): 3.22 µM | IC50 (Schistosoma mansoni [22]): 4.8 µM | CC20 (HepG2): 6.94 µM | IC50 (Schistosoma mansoni [23]): 0.29 µM | CC50 (MRC5): 6.2 µM

Compound: CC(C(=O)Nc1ccc2oc(-c3ccncc3)nc2c1)c1ccccc1 (stereo not given)
inhibition at 10 µM (Toxoplasma gondii [7]): 3.75% | Inhibition (Toxoplasma gondii [8]): 100% | IC50 (Toxoplasma gondii [9]): no inhibition | IC50 (Toxoplasma gondii [10]): no inhibition | Inhibition (Toxoplasma gondii [11]): 62.6% | CC50 [5]: > 50 µM | Inhibition (Toxoplasma gondii [12]): 1.05% | Inhibition (Toxoplasma gondii [13]): ~75%

Compound: CC(C)(C)c1ccc(N[C@@H]2CCCC[C@H]2NC(=O)c2ccco2)cc1
Inhibition (Brugia pahangi): 3% | Inhibition (Onchocerca ochengi [14]): 0% | CC20 (HepG2): 35.9 µM | Activity (Onchocerca gutturosa [15]): 37.7% | Activity (Onchocerca gutturosa [16]): 50% | Activity (Onchocerca lienalis): 13.3% | CC50 [5]: > 50 µM | Inhibition (Onchocerca volvulus): 80% | Inhibition (Onchocerca ochengi [17]): 1%

Compound: Cc1ccccc1C(=O)N1N=C(Nc2ccccc2)SC1(C)C
Inhibition (Schistosoma mansoni [20]): 0% | IC50 (Schistosoma mansoni [21]): 5.8 µM | IC50 (Schistosoma mansoni [22]): 5.3 µM | CC20 (HepG2): 8 µM | IC50 (Schistosoma mansoni [23]): 6.7 µM | CC50 (MRC5): > 50 µM

Compound: c1ccc(Oc2ccc(-c3cncc(-c4ccc5[nH]ccc5c4)n3)cc2)cc1
Inhibition (Schistosoma mansoni [20]): 100% | IC50 (Schistosoma mansoni [21]): 2.1 µM | IC50 (Schistosoma mansoni [22]): 3.7 µM | CC20 (HepG2): 25.7 µM | IC50 (Schistosoma mansoni [23]): 1.4 µM | IC50 (Schistosoma mansoni [24]): 0.27 µM | Activity (Schistosoma mansoni [25]): Active | CC50 (MRC5): 20 µM

Compound: COC(=O)c1c(NC(=O)c2cc3ccccc3oc2=O)sc2c1CCN(Cc1ccccc1)C2
Inhibition (Brugia pahangi): 10% | Inhibition (Onchocerca ochengi [14]): 8% | CC20 (HepG2): 12.3 µM | Activity (Onchocerca gutturosa [15]): 0% | Activity (Onchocerca gutturosa [16]): 21.4% | Activity (Onchocerca lienalis): 33.3% | CC50 [5]: > 50 µM | Inhibition (Onchocerca volvulus): 100% | Inhibition (Onchocerca ochengi [17]): 0%

Continued, in another order:

IC50 (Trypanosoma brucei [1]): 13.1 µM | IC50 (Leishmania major): 10.4 µM | IC50 (Leishmania infantum): > 32 µM | IC50 (Trypanosoma brucei [2]): > 32 µM | IC50 (Trypanosoma cruzi): 4.03 µM
Compound: Nc1ccc2ncnc(Nc3ccc(OCc4cccc(F)c4)c(Cl)c3)c2c1
CC20 (HepG2): 9.72 µM | CC50 [3]: > 32 µM | CC50 (MRC5): > 32 µM

IC50 (Trypanosoma brucei [1]): 3.07 µM | IC50 (Leishmania major): 12.4 µM | IC50 (Leishmania infantum): > 32 µM | IC50 (Trypanosoma brucei [2]): 5.31 µM | IC50 (Trypanosoma cruzi): 0.95 µM
Compound: O=C(CN1CCOCC1)Nc1ccc2ncnc(Nc3ccc(OCc4cccc(F)c4)c(Cl)c3)c2c1
CC20 (HepG2): 10.9 µM | CC50 [3]: > 32 µM | CC50 (MRC5): 6.4 µM

IC50 (Cryptosporidium parvum [4]): 25.9 µM | IC50 (Cryptosporidium parvum [6]): 0.5 µM
Compound: Nc1ncnc2c1c(Cc1cccc3ccccc13)nn2CC1CCNCC1
CC20 (HepG2): >80 µM | CC50 [5]: > 50 µM

IC50 (Cryptosporidium parvum [4]): > 10 µM | IC50 (Cryptosporidium parvum [6]): 0.1 µM
Compound: CC(C)(C)n1nc(Cc2cccc3ccccc23)c2c(N)ncnc21
CC20 (HepG2): 19 µM | CC50 [5]: 24.1 µM

IC50 (Leishmania donovani [18]): > 10 µM | IC50 (Trypanosoma brucei [1]): 2.7 µM | IC50 (Leishmania donovani [19]): 1.32 µM | IC50 (Leishmania major): 13 µM | IC50 (Leishmania infantum): 10.2 µM | IC50 (Trypanosoma brucei [2]): 3.89 µM | IC50 (Trypanosoma cruzi): 9.37 µM
Compound: CC(C)(C)OC(=O)N1CCN(c2cc(-c3ccc(Oc4ccccc4)cc3)n[nH]2)CC1
CC50 (L6): 4.8 µM | CC20 (HepG2): 4.03 µM | CC50 [3]: 16 µM | Toxicity on infected macrophages (Leishmania): 20 µM | CC50 (MRC5): > 32 µM

IC50 (Schistosoma mansoni [21]): 5.7 µM | IC50 (Schistosoma mansoni [22]): 4.9 µM | IC50 (Schistosoma mansoni [24]): 1.18 µM
Compound: COc1ccc(-c2cnc3cnc(-c4cccc(OC(C)C)c4)cn23)cc1
Inhibition (Schistosoma mansoni [20]): 93% | CC20 (HepG2): 24.3 µM | IC50 (Schistosoma mansoni [23]): 6.7 µM | Activity (Schistosoma mansoni [25]): Active | CC50 (MRC5): 40.1 µM

IC50 (Schistosoma mansoni [21]): 7.02 µM | IC50 (Schistosoma mansoni [22]): 5.3 µM
Compound: COc1ccc(-c2onc(C(F)(F)F)c2-c2ccc(Cl)cc2)c(O)c1
Inhibition (Schistosoma mansoni [20]): 20% | IC50 (Schistosoma mansoni [23]): 3.36 µM | CC50 (MRC5): 8.3 µM
